Measurements: the supplement of paper PMC10307832

Legend:
Assay in all cases: relative viability (nuclei count vs DMSO), 5 days (fraction); higher = more cells survive
[1] = test system: NCI-H647
Method in brief: (§1)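 Five library-drug doses in √10 steps were combined with a fixed anchor-drug dose, or a single drug was given alone, by pin tool to lung cancer cell lines in 1536-well plates the day after seeding. Nuclei were stained and counted after 5 days. Relative viability is the nuclei count in treated wells over that in vehicle wells, taken as the median of duplicate plates.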

[2] = test system: NCI-H1355
Method in brief: as §1

[3] = test system: NCI-H1792
Method in brief: as §1

[4] = test system: NCI-H522
Method in brief: as §1

[5] = test system: SK-LU-1
Method in brief: as §1

[6] = test system: HARA
Method in brief: as §1

[7] = test system: EKVX
Method in brief: as §1

[8] = test system: NCI-H661
Method in brief: as §1

[9] = test system: NCI-H2009
Method in brief: as §1

[10] = test system: LOU-NH91
Method in brief: as §1

[11] = test system: SK-MES-1
Method in brief: as §1

[12] = test system: NCI-H2170
Method in brief: as §1

[13] = test system: NCI-H2342
Method in brief: as §1

[14] = test system: NCI-H1734
Method in brief: as §1

[15] = test system: NCI-H2087
Method in brief: as §1

[16] = test system: NCI-H2405
Method in brief: as §1

[17] = test system: NCI-H1993
Method in brief: as §1

[18] = test system: NCI-H1437
Method in brief: as §1

[19] = test system: BEN
Method in brief: as §1

[20] = test system: HCC-827
Method in brief: as §1

[21] = test system: HCC-366
Method in brief: as §1

[22] = test system: NCI-H1395
Method in brief: as §1

For `COc1nc(C)cnc1NS(=O)(=O)c1cccnc1-c1ccc(-c2nnco2)cc1` [Zibotentan] + O=C(c1cc(Cc2n[nH]c(=O)c3ccccc23)ccc1F)N1CCN(C(=O)C2CC2)CC1 [Olaparib] (partner 8 µM), the relative viability ([1]; first compound 0.08 µM) was 0.592, the relative viability ([1]; first compound 0.253 µM) was 0.421 and the relative viability ([1]; first compound 0.8 µM) was 0.665. It also gave a relative viability ([1]; first compound 2.53 µM) of 0.494, a relative viability ([2]; first compound 0.08 µM) of 0.829 and a relative viability ([2]; first compound 0.253 µM) of 0.691. The relative viability ([2]; first compound 0.8 µM) was 0.751, the relative viability ([2]; first compound 2.53 µM) was 0.756 and the relative viability ([3]; first compound 0.08 µM) was 0.235. For the same molecule, the relative viability ([3]; first compound 0.253 µM) was 0.408, the relative viability ([3]; first compound 0.8 µM) was 0.323 and the relative viability ([3]; first compound 2.53 µM) was 0.373. For the same molecule, the relative viability ([4]; first compound 0.08 µM) was 0.65, the relative viability ([4]; first compound 0.253 µM) was 0.75 and the relative viability ([4]; first compound 0.8 µM) was 0.681. The relative viability ([4]; first compound 2.53 µM) was 0.703, the relative viability ([5]; first compound 0.08 µM) was 0.507 and the relative viability ([5]; first compound 0.253 µM) was 0.477. It also gave a relative viability ([5]; first compound 0.8 µM) of 0.579, a relative viability ([5]; first compound 2.53 µM) of 0.615 and a relative viability ([6]; first compound 0.08 µM) of 0.856. The relative viability ([6]; first compound 0.8 µM) was 0.455, the relative viability ([6]; first compound 2.53 µM) was 0.883 and the relative viability ([7]; first compound 0.08 µM) was 0.909. It also gave a relative viability ([7]; first compound 0.253 µM) of 0.733, a relative viability ([7]; first compound 0.8 µM) of 0.799 and a relative viability ([7]; first compound 2.53 µM) of 0.917. For the same molecule, the relative viability ([8]; first compound 0.08 µM) was 0.776, the relative viability ([8]; first compound 0.253 µM) was 0.677 and the relative viability ([8]; first compound 0.8 µM) was 0.791. The relative viability ([8]; first compound 2.53 µM) was 0.751, the relative viability ([9]; first compound 0.08 µM) was 0.688 and the relative viability ([9]; first compound 0.253 µM) was 0.589. For the same molecule, the relative viability ([9]; first compound 0.8 µM) was 0.671, the relative viability ([9]; first compound 2.53 µM) was 0.787 and the relative viability ([10]; first compound 0.08 µM) was 0.908. For the same molecule, the relative viability ([10]; first compound 0.253 µM) was 0.854, the relative viability ([10]; first compound 0.8 µM) was 0.999 and the relative viability ([10]; first compound 2.53 µM) was 0.947. The relative viability ([11]; first compound 0.08 µM) was 0.705, the relative viability ([11]; first compound 0.253 µM) was 0.465 and the relative viability ([11]; first compound 0.8 µM) was 0.68. The relative viability ([11]; first compound 2.53 µM) was 0.787, the relative viability ([12]; first compound 0.08 µM) was 0.571 and the relative viability ([12]; first compound 0.253 µM) was 0.648. It also gave a relative viability ([12]; first compound 0.8 µM) of 0.522, a relative viability ([12]; first compound 2.53 µM) of 0.568 and a relative viability ([13]; first compound 0.08 µM) of 0.407. For the same molecule, the relative viability ([13]; first compound 0.253 µM) was 0.44, the relative viability ([13]; first compound 0.8 µM) was 0.504 and the relative viability ([13]; first compound 2.53 µM) was 0.389. It also gave a relative viability ([14]; first compound 0.08 µM) of 0.593, a relative viability ([14]; first compound 0.253 µM) of 0.588 and a relative viability ([14]; first compound 0.8 µM) of 0.653. It also gave a relative viability ([14]; first compound 2.53 µM) of 0.699, a relative viability ([15]; first compound 0.08 µM) of 0.658 and a relative viability ([15]; first compound 0.253 µM) of 0.668. The relative viability ([15]; first compound 0.8 µM) was 0.63, the relative viability ([15]; first compound 2.53 µM) was 0.48 and the relative viability ([16]; first compound 0.08 µM) was 0.878. It also gave a relative viability ([16]; first compound 0.253 µM) of 0.843, a relative viability ([16]; first compound 0.8 µM) of 0.915 and a relative viability ([16]; first compound 2.53 µM) of 0.892. For the same molecule, the relative viability ([17]; first compound 0.08 µM) was 1.01, the relative viability ([17]; first compound 0.253 µM) was 0.842 and the relative viability ([17]; first compound 0.8 µM) was 0.853. The relative viability ([17]; first compound 2.53 µM) was 1.08, the relative viability ([18]; first compound 0.08 µM) was 0.64 and the relative viability ([18]; first compound 0.253 µM) was 0.629. It also gave a relative viability ([18]; first compound 0.8 µM) of 0.617, a relative viability ([18]; first compound 2.53 µM) of 0.621 and a relative viability ([19]; first compound 0.08 µM) of 1.15. The relative viability ([19]; first compound 0.253 µM) was 1.09, the relative viability ([19]; first compound 0.8 µM) was 1.09 and the relative viability ([19]; first compound 2.53 µM) was 0.958. The relative viability ([20]; first compound 0.08 µM) was 0.64, the relative viability ([20]; first compound 0.253 µM) was 0.647 and the relative viability ([20]; first compound 0.8 µM) was 0.667. The relative viability ([20]; first compound 2.53 µM) was 0.669, the relative viability ([21]; first compound 0.08 µM) was 0.396 and the relative viability ([21]; first compound 0.253 µM) was 0.34. For the same molecule, the relative viability ([21]; first compound 0.8 µM) was 0.342, the relative viability ([21]; first compound 2.53 µM) was 0.365 and the relative viability ([22]; first compound 0.08 µM) was 0.401. It also gave a relative viability ([22]; first compound 0.253 µM) of 0.486, a relative viability ([22]; first compound 0.8 µM) of 0.436 and a relative viability ([22]; first compound 2.53 µM) of 0.495.
